Assay [1] has as its target HLA-B4001 (Homo sapiens, UniProt P01889, A65T/A93T/A95T/D138N/D98Y/E176V/E69K/N87E/Q56L/Q94N/R180L/S121R/S35A/S48T/T167S/V36M/W171L/Y33H/Y91S). Description: Competitive peptide binding assay, CIR-B4001. Conditions: HMy2.CIR-B4001 cells, reference Cy5-[…], class from inhibition at 5 and 15 μM, flow cytometry MFI; read-out: Binding affinity with HLA-B4001. How it is done: (§1) Then, competitive peptide binding assays were performed.

The target of assay [2] is HLA-B1301 (Homo sapiens, UniProt P01889, A65T/A93T/A95T/D138N/D201E/D98Y/E176V/E204Q/E69M/E70A/G107R/K202T/L105A/L119I/N104T/N87E/Q94N/R106L/R155S/R169L/R180L/S101N/S121R/S35A/S48T/T118I/V127L/V36M/Y140L/Y91S). Description: Competitive peptide binding assay, CIR-B1301. Conditions: HMy2.CIR-B1301 cells, reference Cy5-[…], class from inhibition at 5 and 15 μM, flow cytometry MFI; read-out: Binding affinity with HLA-B1301. The procedure: as §1

Assay [3] concerns the target HLA-B5801 (Homo sapiens, UniProt P01889, A329T/C349S/D201E/D98Y/E176V/E187L/E204Q/E69T/G107R/I218V/I90N/K202T/L105A/L119I/N104I/N87E/Q89R/Q94S/R106L/R155S/R180L/R86G/S101N/S121R/S35A/S48A/T118I/V127L/V306I/V36M/Y140S/Y91M). Description: Competitive peptide binding assay, CIR-B5801. Conditions: HMy2.CIR-B5801 cells, reference Cy5-[…], class from inhibition at 5 and 15 μM, flow cytometry MFI; read-out: Binding affinity with HLA-B5801. How it is done: as §1

Assay [4] has as its target HLA-B4601 (Homo sapiens, UniProt P01889, A329T/A93R/C349S/D201E/E100V/E187L/E204Q/E69M/E70A/I90K/K202T/N87E/R155S/R180W/S121R/S35A/S48A/V306I/V36M/Y140S). Put plainly: Competitive peptide binding assay, CIR-B4601. Conditions: for IC50: HMy2.CIR-B4601 cells, reference Cy5-[…], class from inhibition at 5 and 15 μM, flow cytometry MFI, read-out: Binding affinity with HLA-B4601. How it is done: as §1

Assay [5] deals with HLA-B3501 (Homo sapiens, UniProt P01889, A329T/A93T/A95T/C349S/D201E/D98Y/E176V/E187L/E204Q/E69T/I218V/K202T/L119I/Q94N/R155S/R180L/S121R/S35A/S48A/T118I/V127L/V306I/V36M/Y140S/Y91F). Description: Competitive peptide binding assay, CIR-B3501. Conditions: HMy2.CIR-B3501 cells, reference Cy5-[…], class from inhibition at 5 and 15 μM, flow cytometry MFI; read-out: Binding affinity with HLA-B3501. How it is done:
as §1

Assay [6] deals with HLA-C0702 (Homo sapiens, UniProt P10321). Put plainly: Competitive peptide binding assay, CIR-C0702.
Assay [7] has as its target HLA-C0304 (Homo sapiens, UniProt P10321, A176E/A330V/A97T/C25G/C350S/D114A/D33Y/E197K/L119I/L127V/L171W/L218V/M285V/M309V/M331V/P208H/Q277E/Q291P/R243W/R45H/S123Y/S140Y/S297R/S48A/T118I/T187L/T329A/T363A/V319A). Description: Competitive peptide binding assay, CIR-C0304. Conditions: HMy2.CIR-C0304 cells, reference Cy5-[…], class from inhibition at 5 and 15 μM, flow cytometry MFI; read-out: Binding affinity with HLA-C0304. The procedure:
as §1

The target in assay [8] is HLA-C0102 (Homo sapiens, UniProt P10321, A176E/A330V/A35S/A97T/C350S/D114A/D33F/L171W/L180R/L218V/M285V/M309V/M331V/P208H/Q277E/Q291P/R121W/R243W/R30K/S123C/S140Y/S297R/T329A/T363A/V272M/V319A). Put plainly: Competitive peptide binding assay, CIR-C0102. Conditions: for inhibition at 5 µM / inhibition at 15 µM: read-out: Inhibition % of Cy5-reference peptide binding. The procedure: as §1

The target in assay [9] is HLA-C0602 (Homo sapiens, UniProt P10321, A176E/A330V/C350S/L171W/L180W/L218V/M285V/M309V/M331V/N104K/P208H/Q277E/Q291P/R121W/S101N/S123Y/S297R/T329A/T363A/V319A/V328M). Put plainly: Competitive peptide binding assay, CIR-C0602.
The target of assay [10] is HLA-C0302 (Homo sapiens, UniProt P10321, A176E/A330V/A97T/C25G/C350S/D114A/D33Y/E197K/L127V/L171W/L218V/M285V/M309V/M331V/P208H/Q277E/Q291P/R243W/R45H/S123Y/S297R/S48A/T118I/T187L/T329A/T363A/V319A). Put plainly: Competitive peptide binding assay, CIR-C0302. Conditions: HMy2.CIR-C0302 cells, reference Cy5-[…], class from inhibition at 5 and 15 μM, flow cytometry MFI; read-out: Binding affinity with HLA-C0302. The procedure:
as §1

The target of assay [11] is HLA-C0801 (Homo sapiens, UniProt P10321, A176T/A330V/A97T/C350S/D114A/D138N/D33Y/E201K/E299G/L171W/L218V/M285V/M309V/M331V/P208H/Q277E/Q291P/R59Q/S123Y/S140F/S297R/S48A/T329A/T363A/V319A/V328M). Put plainly: Competitive peptide binding assay, CIR-C0801. Conditions: HMy2.CIR-C0801 cells, reference Cy5-[…], class from inhibition at 5 and 15 μM, flow cytometry MFI; read-out: Binding affinity with HLA-C0801. The procedure:
as §1

Assay [12] has as its target HLA-C0401 (Homo sapiens, UniProt P10321, A176E/A330V/A35S/A73E/C25G/C350S/D138N/D33S/E299K/L171W/L180R/L218V/M285V/M309V/M331V/N104K/P208H/Q277E/Q291P/R243W/R38W/S101N/S123F/S140F/S297R/S48A/T329A/T363A/V319A/V327M). Put plainly: Competitive peptide binding assay, CIR-C0401. Conditions: HMy2.CIR-C0401 cells, reference Cy5-[…], class from inhibition at 5 and 15 μM, flow cytometry MFI; read-out: Binding affinity with HLA-C0401. How it is done: as §1

Assay [13] addresses HLA-B1501 (Homo sapiens, UniProt P01889, A329T/A93T/A95T/C349S/D201E/D98Y/E187L/E204Q/E69M/E70A/K202T/N87E/Q94N/R155S/R180W/S121R/S35A/S48A/V306I/V36M/Y140S/Y91S). Put plainly: Competitive peptide binding assay, CIR-B1501. Conditions: HMy2.CIR-B1501 cells, reference Cy5-[…], class from inhibition at 5 and 15 μM, flow cytometry MFI; read-out: Binding affinity with HLA-B1501. How it is done: as §1

Assay [14] deals with HLA-B1502 (Homo sapiens, UniProt P01889, A329T/A93T/A95T/C349S/D201E/D98Y/E187L/E204Q/E69M/E70A/H137Y/K202T/L119I/Q94N/R155S/R180L/S121R/S35A/S48A/T118I/V306I/V36M/Y140S/Y91S). Description: Competitive peptide binding assay, CIR-B1502. Conditions: HMy2.CIR-B1502 cells, reference Cy5-[…], class from inhibition at 5 and 15 μM, flow cytometry MFI; read-out: Binding affinity with HLA-B1502. How it is done:
as §1

Where [15] appears, read: HMy2.CIR-C0102 cells, reference Cy5-[…], class from inhibition at 5 and 15 μM, flow cytometry MFI, read-out: Binding affinity with HLA-C0102.

Like-named read-outs stand apart in the source and are kept apart here. Peptide text beside a SMILES is read from it.

On to `CC[C@H](C)[C@H](NC(=O)[C@@H](NC(=O)[C@H](CC(C)C)NC(=O)[C@H](CC(N)=O)NC(=O)[C@H](Cc1c[nH]c2ccccc12)NC(=O)[C@H](CCC(N)=O)NC(=O)[C@H](CCC(=O)O)NC(=O)[C@@H](N)CC(C)C)C(C)C)C(=O)NCC(=O)O` [Epitope Y215] (H-LEQWNLVIG-OH; N-terminus and C-terminus assumed), for which the IC50 in [1] is 5 to 15 µM; in assay [2], 5 to 15 µM; in [3] it was above 15 µM; in assay [4], 5 to 15 µM; in assay [5] it was above 15 µM. Also, in [4] (read-out: Inhibition % of Cy5-reference peptide binding, CIR-B4601, 5μM peptide), the inhibition at 5 µM is 47.2%. The inhibition at 15 µM in assay [4] (read-out: Inhibition % of Cy5-reference peptide binding, CIR-B4601, 15μM peptide) is 87.3%.
As to `CSCC[C@H](NC(=O)[C@H](CO)NC(=O)[C@H](Cc1ccccc1)NC(=O)[C@H](Cc1c[nH]cn1)NC(=O)[C@H](CCCCN)NC(=O)[C@H](CCCNC(=N)N)NC(=O)[C@H](CC(C)C)NC(=O)[C@H](Cc1ccc(O)cc1)NC(=O)[C@H](C)NC(=O)[C@@H](N)Cc1ccc(O)cc1)C(=O)O` [Epitope M26] (H-YAYLRKHFSM-OH; N-terminus and C-terminus assumed), the IC50 was above 15 µM in assay [6]; 5 to 15 µM in [7]; above 15 µM in assay [8]; above 15 µM in assay [9]; 5 to 15 µM in assay [10]. In assay [8], the inhibition at 5 µM stood at 8.9%. In [8], the inhibition at 15 µM came to 33.9%.
Regarding `CC(C)C[C@H](NC(=O)[C@@H](NC(=O)[C@H](CCCNC(=N)N)NC(=O)[C@H](CO)NC(=O)[C@@H](NC(=O)[C@H](C)NC(=O)[C@@H](N)C(C)C)[C@@H](C)O)[C@@H](C)O)C(=O)N[C@@H](CO)C(=O)N[C@@H](Cc1ccc(O)cc1)C(=O)O` [Epitope M72] (H-VATSRTLSY-OH; N-terminus and C-terminus assumed), the IC50 in assay [6] is above 15 µM; in assay [7] it was above 15 µM; in assay [11], below 5 µM; in assay [12], above 15 µM; in [10], above 15 µM.
For `CC[C@H](C)[C@H](NC(=O)[C@H](CC(N)=O)NC(=O)[C@@H](NC(=O)[C@H](CCC(=O)O)NC(=O)[C@@H]1CCCN1C(=O)[C@H](CC(N)=O)NC(=O)[C@H](Cc1ccccc1)NC(=O)[C@H](CO)NC(=O)[C@@H](N)Cc1c[nH]c2ccccc12)[C@@H](C)O)C(=O)O` [Epitope Y297] (H-WSFNPETNI-OH; N-terminus and C-terminus assumed), the values for the IC50 in assay [1], in assay [2] and in assay [13] were above 15 µM, above 15 µM and below 5 µM, respectively.
Regarding `CC[C@H](C)[C@H](NC(=O)[C@@H]1CCCN1C(=O)[C@@H](NC(=O)[C@H](Cc1c[nH]cn1)NC(=O)[C@H](CCCCN)NC(=O)[C@H](CO)NC(=O)[C@H](Cc1ccc(O)cc1)NC(=O)[C@@H](NC(=O)[C@@H](N)CCCCN)[C@@H](C)CC)[C@@H](C)O)C(=O)O` [Epitope M34] (H-KIYSKHTPI-OH; N-terminus and C-terminus assumed), the IC50 in assay [7] was above 15 µM; in [8] (setting [15]), below 5 µM; in [12] it was 5 to 15 µM; in assay [10], above 15 µM. Also, in [8], the inhibition at 5 µM was 77.4%. In addition, the inhibition at 15 µM in assay [8] was 91.2%.
Turning to `C[C@H](NC(=O)CNC(=O)[C@H](C)NC(=O)[C@@H](NC(=O)[C@@H](N)Cc1c[nH]c2ccccc12)[C@@H](C)O)C(=O)N[C@@H](C)C(=O)N[C@@H](C)C(=O)N[C@@H](Cc1ccc(O)cc1)C(=O)N[C@@H](Cc1ccc(O)cc1)C(=O)O` [Epitope Y174] (H-WTAGAAAYY-OH; N-terminus and C-terminus assumed), the IC50 is above 15 µM in assay [1]; above 15 µM in [3]; below 5 µM in [14]; above 15 µM in assay [4]; above 15 µM in assay [5]; 5 to 15 µM in assay [13].
For the compound `CC(C)C[C@H](NC(=O)[C@@H](NC(=O)[C@@H](NC(=O)CNC(=O)[C@H](CCC(N)=O)NC(=O)[C@@H]1CCCN1C(=O)[C@H](CC(C)C)NC(=O)[C@H](CCC(N)=O)NC(=O)[C@H](CC(C)C)NC(=O)[C@@H](N)C(C)C)[C@@H](C)O)[C@@H](C)O)C(=O)O` [Epitope M18] (H-VLQLPQGTTL-OH; N-terminus and C-terminus assumed), the IC50 in assay [7] was above 15 µM; in assay [11] it was above 15 µM; in assay [8] (setting [15]), 5 to 15 µM; in assay [9], above 15 µM.
